This is an account of results in PMC11697083 (Nature Communications, 2025).

What all share (assay type): biochemical
The target of experiment [1] is T1, Murine KIF18A (Mus musculus, UniProt Q91WD7).
T1 sequence (Q91WD7 1-886): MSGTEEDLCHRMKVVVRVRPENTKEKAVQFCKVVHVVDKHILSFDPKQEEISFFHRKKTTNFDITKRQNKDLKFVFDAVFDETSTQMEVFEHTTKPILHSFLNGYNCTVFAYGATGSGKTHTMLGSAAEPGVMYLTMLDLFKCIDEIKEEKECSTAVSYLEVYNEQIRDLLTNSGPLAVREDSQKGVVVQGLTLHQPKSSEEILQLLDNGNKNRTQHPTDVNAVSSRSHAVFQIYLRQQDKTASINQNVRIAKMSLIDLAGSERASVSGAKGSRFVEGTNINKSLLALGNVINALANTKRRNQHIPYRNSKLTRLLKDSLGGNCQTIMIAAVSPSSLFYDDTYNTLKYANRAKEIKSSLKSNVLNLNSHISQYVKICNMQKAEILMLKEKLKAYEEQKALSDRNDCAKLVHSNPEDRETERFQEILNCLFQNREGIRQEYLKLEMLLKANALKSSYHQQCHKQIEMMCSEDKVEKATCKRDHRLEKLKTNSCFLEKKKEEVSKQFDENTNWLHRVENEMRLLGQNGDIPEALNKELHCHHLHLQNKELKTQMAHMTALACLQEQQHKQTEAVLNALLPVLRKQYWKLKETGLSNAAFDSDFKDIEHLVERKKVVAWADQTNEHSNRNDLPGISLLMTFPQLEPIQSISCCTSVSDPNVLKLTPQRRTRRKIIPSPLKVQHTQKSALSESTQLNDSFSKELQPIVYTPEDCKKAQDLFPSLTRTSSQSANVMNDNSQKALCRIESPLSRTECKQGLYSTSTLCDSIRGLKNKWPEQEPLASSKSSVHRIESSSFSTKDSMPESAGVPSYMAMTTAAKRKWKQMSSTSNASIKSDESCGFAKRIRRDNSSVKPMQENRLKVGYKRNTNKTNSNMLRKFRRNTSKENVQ
The experiment can be described thus: ADP-Glo ATPase assay. On the technique in general: In ADP-Glo the light output rises with the ADP produced.

In experiment [2] the target is T2, KIF19 (Homo sapiens, UniProt Q2TAC6).
T2 sequence (Q2TAC6 1-998): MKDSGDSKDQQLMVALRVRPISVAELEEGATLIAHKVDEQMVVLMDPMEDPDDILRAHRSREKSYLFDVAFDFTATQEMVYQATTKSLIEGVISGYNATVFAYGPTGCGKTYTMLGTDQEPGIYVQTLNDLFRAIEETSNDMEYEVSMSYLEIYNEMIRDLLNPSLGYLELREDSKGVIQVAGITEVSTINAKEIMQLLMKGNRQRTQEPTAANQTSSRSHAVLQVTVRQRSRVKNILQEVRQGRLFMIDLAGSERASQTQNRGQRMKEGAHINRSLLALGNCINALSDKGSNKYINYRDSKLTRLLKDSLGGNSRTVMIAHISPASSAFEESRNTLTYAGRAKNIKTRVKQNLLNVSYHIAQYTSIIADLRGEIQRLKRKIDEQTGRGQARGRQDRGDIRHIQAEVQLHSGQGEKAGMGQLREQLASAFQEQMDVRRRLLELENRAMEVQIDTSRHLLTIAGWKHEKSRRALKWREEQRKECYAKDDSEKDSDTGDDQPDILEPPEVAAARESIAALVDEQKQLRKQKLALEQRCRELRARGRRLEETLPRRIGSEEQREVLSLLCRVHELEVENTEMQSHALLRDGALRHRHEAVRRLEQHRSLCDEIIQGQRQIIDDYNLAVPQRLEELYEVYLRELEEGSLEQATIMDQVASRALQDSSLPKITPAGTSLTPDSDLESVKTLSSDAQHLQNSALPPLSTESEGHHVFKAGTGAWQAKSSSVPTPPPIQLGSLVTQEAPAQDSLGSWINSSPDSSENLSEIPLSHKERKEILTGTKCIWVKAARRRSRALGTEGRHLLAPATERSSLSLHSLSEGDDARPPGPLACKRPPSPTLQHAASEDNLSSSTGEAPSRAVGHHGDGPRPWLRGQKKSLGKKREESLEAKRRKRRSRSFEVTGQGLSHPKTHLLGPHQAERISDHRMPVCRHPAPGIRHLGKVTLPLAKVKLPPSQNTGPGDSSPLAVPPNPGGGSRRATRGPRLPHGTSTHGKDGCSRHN
The experiment in a line: ADP-Glo ATPase assay.

Experiment [3] concerns the target T3, KIF18A (Homo sapiens, UniProt Q8NI77).
T3 sequence (Q8NI77 1-374): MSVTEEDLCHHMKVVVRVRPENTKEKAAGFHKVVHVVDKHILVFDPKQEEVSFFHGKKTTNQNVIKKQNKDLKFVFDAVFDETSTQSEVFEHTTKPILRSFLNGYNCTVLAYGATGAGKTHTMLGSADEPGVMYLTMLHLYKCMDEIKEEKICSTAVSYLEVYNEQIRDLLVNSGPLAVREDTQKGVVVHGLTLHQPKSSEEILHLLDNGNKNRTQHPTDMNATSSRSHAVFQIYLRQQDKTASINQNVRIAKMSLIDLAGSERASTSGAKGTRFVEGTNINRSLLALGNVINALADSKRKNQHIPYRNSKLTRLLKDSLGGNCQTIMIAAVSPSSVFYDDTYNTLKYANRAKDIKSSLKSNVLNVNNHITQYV
The experiment can be described thus: ADP-Glo ATPase assay at varied ATP.

In the case of `CC(C)(C)NS(=O)(=O)c1cccc(C(=O)N2CC3(CCC4(CC4)CC3)c3cc(NS(C)(=O)=O)ccc32)c1` [compound 11, N-(tert-butyl)-3-(5”-(methylsulfonamido)dispiro[cyclopropane-1,1’-cyclohexane-4’,3”-indoline]-1”-carbonyl)benzenesulfonamide], the IC50 was determined as 0.0088 µM in experiment [1] and 0.28 µM in experiment [2].

`O=[N+]([O-])c1cc(Cl)ccc1S(=O)(=O)c1ccccc1` [BTB-1] returned an IC50 in experiment [3] of 2.2 µM. That is a single-digit micromolar value.

For orientation: IC50 means the midpoint of a concentration-inhibition curve.
